Reference: US20070042967A1, “Proteaseome inhibitors for the treatment of herpesviridae infected individuals” (priority 2002, published 2007)
Where a SMILES comes first, the peptide text is derived from it. The star is where a group is joined. Cbz = O=C(OCc1ccccc1)*

Assays:
[1] = test system: IL-8; assay: Extracellular IL-8 in supernatants of AD169-infected HELF (ELISA); format: cell-based, human; conditions: increasing amounts; data not shown
Procedure: (§1) Next, we wondered whether MG132 is able to reduce the immune modulatory activity of HCMV. Therefore we measured the levels of extracellular IL-6, IL-8, and RANTES in the supernatants of mock-infected and AD-169-infected HELF (m.o.i. =1) following culture in the presence or absence of increasing amounts of MG132. In parallel, surface expression of ICAM-1 (CD54) was measured by flow cytometric analysis. As expected infection of HELF with AD 169 increased secretion of IL-6, EL-8 and RANTES (data not shown) as well as surface expression of ICAM-1 over time (FIGS. 14A and B). While virus-induced secretion of IL-6, IL-8, and RANTES was not inhibited by the proteasome inhibitor, but, in some experiments even increased (data not shown), virus-induced surface expression of ICAM-1 was prevented (FIG. 14). […] For comparison, GCV had no influence on virus-induced ICAM-1 expression, but rather sustained its density on the cell surface (FIG. 14, last columns).
(§2) For measurement of IL-6 and EL-8 cell culture supernatants were collected from mock-infected and AD169-infected HELF cultivated in the presence or absence of MG132 or GCV (m.o.i.=1) immediately after adsorption of the virus (day 0) as well as at day 1, 2, 3 and 5 p.i. and tested for IL-6 and EL-8 by Immulite™ semiautomatic. ELISA analysis as described by the manufacturer (DPC Biermann, Germany).

[2] = test system: HELF; assay: Toxicity for HELFs; format: cell-based, human; conditions: 0.2 μg/ml
Procedure: (§3) Granulocyte/monocyte progenitor like HL-60 cells (ACC CCL 240) were grown in RPMI 1640 medium supplemented with 10% foetal calf serum (FCS, both from Biochrom, Germany and certified to be endotoxin free). Permissive human embryonal lung fibroblasts (HELF) were grown as monolayer in Dulbecco's modified Eagle's medium (BioWhittaker Europa, Belgium) containing 2.0% FCS. Virus stocks of HCMV strain AD169. of laboratory-derived ganciclovir (GCV)-resistant viruses XbaF 4-3-1 and 1117′ 3-1-2 (both are kindly provided from K. K. Biron, Burroughs Wellcome Colo.), HSV 1, strain K, and HSV 2, strain DG (both are patients isolates from the strain collection of this institute) were prepared from the supernatant of infected cell cultures and stored in liquid nitrogen. For standard plaque reduction assays as well as for experiments with immunoblot analysis HELF were seeded into 25 cm^2 cell culture flasks. For preparation of cytosolic and nuclear extracts cells were seeded into 100 cm^2 culture flasks. Generally, confluent monolayers were infected at an multiplicity of infection (m.o.i.) of 0.0002 for standard plaque reduction assay and a m.o.i. of 1 for immunoblot analysis, for preparation of cytosolic and nuclear extracts as well as for measurement of cytokine, chemokine and adhesion molecules in cell culture supernatant. […]

[3] = test system: HSV1 strain K; assay: HSV1 replication in HELF (CPE count); format: cell-based, Herpes Simplex Type 1; conditions: 0.2 to 0.01 μg/ml (0.42 to 0.021 μM)
Procedure: (§4) Confluente HELF monolayers in 24 well tissue culture plates were infected with HSV1 strain K or HSV2 at a M.O.I. of 0.001. Virus adsorption was allowed for 1 h at 37° C. After removing the viral inoculate, cells were overlayed with MEM/E, 1% Methocel and incubated for two days at 37° C. in a 5% CO2 atmosphere. MG-132 at the indicated concentrations was added into the medium after adsorption. CPEs were quantified by light microscopy. MG132 had no effect on HSV1 (FIG. 6) and HSV2 (not shown) replication in HELF.

[4] = test system: HSV2; assay: HSV2 replication in HELF (CPE count); format: cell-based, Herpes Simplex Type 2; conditions: not shown
Procedure: as §4

[5] = test system: IL-6; assay: Extracellular IL-6 in supernatants of AD169-infected HELF (ELISA); format: cell-based, human; conditions: increasing amounts; data not shown
Procedure: as §1, §2

[6] = test system: RANTES; assay: Extracellular RANTES in supernatants of AD169-infected HELF (ELISA); format: cell-based, human; conditions: increasing amounts; data not shown
Procedure: as §1
Cell culture fluids were tested for RANTES using the ELISA KIT from R&D System, Germany, following the manufacturers instructions. […] Surface CD54 amounts were analysed using a FACScalibur analyser and cellquest software (Becton Dickinson, Germany). Data were calculated as A mean fluorescence intensities of CD54 and isotype control antibodies (=specific mean fluorescence intensity, MFI).

[7] = test system: HL-60 cells; assay: Cytotoxic effects on HL-60 cells; format: cell-based; conditions: at 0.5 and 0.1 μg/ml
Procedure: as §3

SMILES: CC(C)C[C@@H](C=O)NC(=O)[C@H](CC(C)C)NC(=O)[C@H](CC(C)C)NC(=O)OCc1ccccc1 [MG-132, N-carbobenzoxy-L-leucinyl-L-leucinyl-L-leucinal] (Cbz-Leu-Leu-Leu-aldehyde)
- virus-induced secretion of IL-8 [1]: not inhibited
- toxicity for HELFs [2]: non-toxic
- effect on HSV1 replication in HELF [3]: no effect
- effect on HSV2 replication in HELF [4]: no effect
- virus-induced secretion of IL-6 [5]: not inhibited
- virus-induced secretion of RANTES [6]: not inhibited
- cytotoxic effects on HL-60 cells [7]: no cytotoxic effects
